US20240262842A1, “SMALL MOLECULE INHIBITORS OF KRAS G12C MUTANT” (Merck Sharp & Dohme LLC, priority 2021, published 2024)
pIC50: −log10 of the molar value. Where two headings read alike, the source gives them in different places.

Key:
[1] = target: T1, interaction between GMPPNP-bound recombinant K-Ras4B G12C mutant protein and cRAF RAS-binding domain (cRAF-RBD) (Homo sapiens, UniProt P01116, G12C); assay: Inhibitory activity on interaction between KRAS G12C and cRAF (Alpha technology)
T1 construct: His-tag (N)
In short: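 His-tagged K-Ras4B G12C (aa 1-169), GMPPNP-loaded, preincubated with compound 1 h at 25° C in pH 7.5 Tris buffer with MgCl2, TCEP, Tween 20. cRAF-RBD (aa 50-132) and Alpha reagents then added for 1.5 h; Alpha signal normalised to DMSO (0%) and GDP-bound KRAS (100%); IC50 from dose titration.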

MIA PaCa-2 cells = assay: Growth inhibition activity on KRAS-G12C mutant cell line (CellTiter-Glo 3D); format: cell-based, human; conditions: MIA PaCa-2, 3-day culture with compound
In short: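 MIA PaCa-2 cells in RPMI1640 with 10% FBS, U-bottom wells, cultured 1 day before compound (0.2% DMSO final), then 3 days at 37 °C, 5% CO2. Viability by CellTiter-Glo 3D luminescence; growth inhibition versus untreated wells gives IC50 (nM).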

[2] = IC50, GMPPNP-bound KRAS G12C incubated with compound 25° C. 1 hour, Table 2
[3] = Homo sapiens, MIA PaCa-2, 72 h, Table 3
[4] = GMPPNP-bound KRAS G12C incubated with compound 25° C. 1 hour, Table 2-1, read-out: IC50
[5] = Homo sapiens, MIA PaCa-2, 72 h, Table 3-1
[6] = IC50, GMPPNP-bound KRAS G12C incubated with compound 25° C. 1 hour, Table 2-1

T1 sequence (P01116 with tags, fused parts or gaps isoform P01116-2 G12C): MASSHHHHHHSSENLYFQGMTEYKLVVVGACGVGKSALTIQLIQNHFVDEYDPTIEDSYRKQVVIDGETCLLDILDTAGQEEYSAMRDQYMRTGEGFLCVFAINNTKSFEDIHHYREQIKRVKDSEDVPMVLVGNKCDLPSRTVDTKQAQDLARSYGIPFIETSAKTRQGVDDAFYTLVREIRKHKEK

## CO[C@H]1CC[C@H](NC/C=C/C(=O)Nc2c(F)cc(C(=O)c3cn4c5c(cccc35)-c3c(C)cc5c(nc(C)n5C)c3N(C)C(=O)C4)cc2F)CC1 [Example 47, (E)-N-(2,6-difluoro-4-(6,8,9,11-tetramethyl-12-oxo-8,11,12,13-tetrahydroimidazo[4″,5″:5′,6′]benzo[1′,2′:5,6][1,4]diazocino[7,8,1-hi]indole-2-carbonyl)phenyl)-4-(((1r,4r)-4-methoxycyclohexyl)amino)but-2-enamide]
[1]; [2]
  pIC50: 7.64
MIA PaCa-2 cells; [3]
  pIC50: 7.23

## CO[C@H]1CC[C@H](NC/C=C/C(=O)Nc2c(F)cc(C(=O)c3cn4c5c(cccc35)-c3c(C(F)(F)F)ccc(=O)n3CCC4)cc2F)CC1 [Example 49, (E)-N-(2,6-difluoro-4-(8-oxo-11-(trifluoromethyl)-5,6-dihydro-4H,8H-pyrido[2′,1′:4,5][1,5]diazocino[3,2,1-hi]indole-1-carbonyl)phenyl-4-((1r,4r)-4-methoxycyclohexyl)amino)but-2-enamide]
[1]; [2]
  pIC50: 6.59
MIA PaCa-2 cells; [3]
  pIC50: 6.82

## Cc1nc2c3c(c(C(F)(F)F)cc2n1C)-c1cccn2c(C(=O)c4cc(F)c(NC(=O)/C=C/CNC5COC5)c(F)c4)cc(c12)CCO3 [Example 51, (E)-N-(4-(9,10-dimethyl-7-(trifluoromethyl)-13,14-dihydro-9H-imidazo-[4″,5″:5′,6′]benzo[1′,2′: 2,3]oxocino[4,5,6-hi]-indolizine-2-carbonyl)-2,6-difluorophenyl)-4-(oxetan-3-ylamino)but-2-enamide]
[1]; [4]
  pIC50: 7.34
MIA PaCa-2 cells; [5]
  pIC50: 7.80

## CO[C@H]1CC[C@H](NC/C=C/C(=O)Nc2c(F)cc(C(=O)c3cc4c5c(cccn35)-c3c(Cl)cc5c(nc(C)n5C)c3OCC4)cc2F)CC1 [Example 53]
[1]; [4]
  pIC50: 7.65
MIA PaCa-2 cells; [5]
  pIC50: 7.50

## Cc1nc2c3c(c(C(F)(F)F)cc2n1C)-c1cccn2c(C(=O)c4cc(F)c(NC(=O)/C=C/CNC(C)(C)CF)c(F)c4)cc(c12)CCO3 [Example 56]
[1]; [4]
  pIC50: 7.91
MIA PaCa-2 cells; [5]
  pIC50: 7.90

## Cc1cc2c(nc(C)n2C)c2c1-c1cccn3c(C(=O)c4cc(F)c(NC(=O)/C=C/CNC5(C)CCOCC5)c(F)c4)cc(c13)CCN2C [Example 57, (E)-N-(2,6-difluoro-4-(7,9,10,12-tetramethyl-9,12,13,14-tetrahydro-imidazo[4″,5″:5′,6′]benzo-[1′,2′:2,3]azocino[4,5,6-hi]indolizine-2-carbonyl)-phenyl)-4-((4-methyltetra-hydro-2H-pyran-4-yl)-amino)but-2-enamide]
[1]; [4]
  pIC50: 7.11
MIA PaCa-2 cells; [5]
  pIC50: 7.16

## Cc1c2c3c(cccn3c1C(=O)c1cc(F)c(NC(=O)/C=C/CNC3(C)COC3)c(F)c1)-c1c(C(F)(F)F)cc3c(nc(C)n3C)c1OCC2 [Example 58, (E)-N-(2,6-difluoro-4-(1,9,10-trimethyl-7-(tri-fluoromethyl)-13,14-dihydro-9H-imidazo-[4″,5″:5′,6′]benzo[1′,2′: 2,3]oxocino[4,5,6-hi]-indolizine-2-carbonyl)-phenyl)-4-((3-methyl-oxetan-3-yl)amino)but-2-enamide]
[1]; [4]
  pIC50: 7.11
MIA PaCa-2 cells; [5]
  pIC50: 7.15

## CO[C@H]1CC[C@H](NC/C=C/C(=O)Nc2ccc(C(=O)c3cc4c5c(cccn35)-c3c(C(F)(F)F)cc5c(nc(C)n5C)c3OCC4)nc2)CC1 [Example 59, (E)-N-(6-(9,10-dimethyl-7-(trifluoromethyl)-13,14-dihydro-9H-imidazo-[4″,5″:5′,6′]benzo[1′,2′: 2,3]oxocino[4,5,6-hi]-indolizine-2-carbonyl)-pyridin-3-yl)-4-(((1r,4r)-4-methoxycyclohexyl)-amino)but-2-enamide]
[1]; [4]
  pIC50: 7.56
MIA PaCa-2 cells; [5]
  pIC50: 7.70

## Cc1nc2c3c(c(C(F)(F)F)cc2n1C)-c1cccn2c(C(=O)c4ccc(NC(=O)/C=C/CNC5(C)COC5)cn4)cc(c12)CCO3 [Example 60, (E)-N-(6-(9,10-dimethyl-7-(trifluoromethyl)-13,14-dihydro-9H-imidazo-[4″,5″:5′,6′]benzo[1′,2′: 2,3]oxocino[4,5,6-hi]-indolizine-2-carbonyl)-pyridin-3-yl)-4-((3-meth-yloxetan-3-yl)amino)but-2-enamide]
[1]; [4]
  pIC50: 7.14
MIA PaCa-2 cells; [5]
  pIC50: 7.49

## CN1CCn2cc(C(=O)c3cc(F)c(NC(=O)/C=C/CNC4(C)COC4)c(F)c3)c3cccc(c32)-c2c(C(F)(F)F)cc3c(ncn3C)c21 [Example 61, (E)-N-(4-(8,11-dimethyl-6-(trifluoromethyl)-8,11,12,13-tetrahydro-imidazo[4″,5″:5′,6′]benzo-[1′,2′:5,6][1,4]diazocino-[7,8,1-hi]indole-2-carbon-yl)-2,6-difluorophenyl)-4-((3-methyloxetan-3-yl)-amino)but-2-enamide]
[1]; [6]
  pIC50: 7.12
MIA PaCa-2 cells; [5]
  pIC50: 7.79

## CCN1CCn2cc(C(=O)c3cc(F)c(NC(=O)/C=C/CN[C@H]4CC[C@H](OC)CC4)c(F)c3)c3cccc(c32)-c2c(C)cc3c(nc(C)n3C)c21 [Example 66, (E)-N-(4-(11-ethyl-6,8,9-trimethyl-8,11,12,13-tetra-hydroimidazo[4″,5″:5′,6′]-benzo[1′,2′:5,6][1,4]diazo-cino[7,8,1-hi]indole-2-carbonyl)-2,6-difluoro-phenyl)-4-(((1r,4r)-4-meth-oxycyclohexyl)amino)but-2-enamide]
[1]; [6]
  pIC50: 7.27
MIA PaCa-2 cells; [5]
  pIC50: 7.52

## CO[C@H]1CC[C@H](NC/C=C/C(=O)Nc2ccc(C(=O)c3cc4c5c(cccn35)-c3c(C(F)(F)F)cc5c(nc(C)n5C)c3OCC4)cc2F)CC1 [Example 67, (E)-N-(4-(9,10-dimethyl-7-(trifluoromethyl)-13,14-dihydro-9H-imidazo-[4″,5″:5′,6′]benzo[1′,2′: 2,3]oxocino[4,5,6-hi]-indolizine-2-carbonyl)-2-fluorophenyl)-4-(((1r,4r)-4-methoxycyclohexyl)-amino)but-2-enamide]
[1]; [4]
  pIC50: 7.66
MIA PaCa-2 cells; [5]
  pIC50: 8.09

## Cc1nc2c3c(c(C(F)(F)F)cc2n1C)-c1cccn2c(C(=O)c4ccc(NC(=O)/C=C/CNC5(C)COC5)c(F)c4)cc(c12)CCO3 [Example 68, (E)-N-(4-(9,10-dimethyl-7-(trifluoromethyl)-13,14-dihydro-9H-imidazo-[4″,5″:5′,6′]benzo[1′,2′: 2,3]oxocino[4,5,6-hi]-indolizine-2-carbonyl)-2-fluorophenyl)-4-((3-meth-yloxetan-3-yl)amino)but-2-enamide]
[1]; [4]
  pIC50: 7.04
MIA PaCa-2 cells; [5]
  pIC50: 7.79

## CO[C@H]1CC[C@H](NC/C=C/C(=O)Nc2c(F)cc(C(=O)c3cn4c5c(cccc35)-c3c(C)cc5c(nc(C)n5C)c3N(C(C)=O)CC4)cc2F)CC1 [Example 72, (E)-N-(4-(11-acetyl-6,8,9-trimethyl-8,11,12,13-tetra-hydroimidazo[4″,5″: 5′,6′]benzo[1′,2′:2,3][1,4]-diazocino[7,8,1-hi]indole-2-carbonyl)-2,6-difluoro-phenyl)-4-(((1r,4r)-4-methoxycyclohexyl)-amino)but-2-enamide]
[1]; [6]
  pIC50: 7.01
MIA PaCa-2 cells; [5]
  pIC50: 5.93

## Cc1cc2c(nc(C)n2C)c2c1-c1cccc3c(C(=O)c4cc(F)c(NC(=O)/C=C/CNC56CCC(CC5)OC6)c(F)c4)cn(c13)CCN2C [Example 73, (E)-4-((2-oxabicyclo-[2.2.2]octan-4-yl)amino)-N-(2,6-difluoro-4-(6,8,9,11-tetramethyl-8,11,12,13-tetrahydro-imidazo[4″,5″:5′,6′]-benzo[1′,2′:5,6][1,4]-diazocino[7,8,1-hi]indole-2-carbonyl)phenyl)but-2-enamide]
[1]; [6]
  pIC50: 7.33
MIA PaCa-2 cells; Table 3-1
  pIC50: 7.66

## CO[C@H]1CC[C@H](NC/C=C/C(=O)Nc2c(F)cc(C(=O)c3cc4c5c(cccn35)-c3c(C(F)(F)F)cc5c(ncn5C)c3N(C)CC4)cc2F)CC1 [Example 74, (E)-N-(4-(9,12-dimethyl-7-(trifluoromethyl)-9,12,13,14-tetrahydro-imidazo[4″,5″:5′,6′]benzo-[1′,2′:2,3]azocino[4,5,6-hi]indolizine-2-carbonyl)-2,6-difluorophenyl)-4-(((1r,4r)-4-methoxycyclo-hexyl)amino)but-2-en-amide]
[1]; [4]
  pIC50: 7.48
MIA PaCa-2 cells; [5]
  pIC50: 8.09

## CO[C@H]1CC[C@H](NC/C=C/C(=O)Nc2c(F)cc(C(=O)c3cn4c5c(cccc35)-c3c(C(F)(F)F)cc5c(nc(C)n5C)c3N(C)C(=O)C4)cc2F)CC1 [Example 76, (E)-N-(2,6-difluoro-4-(8,9,11-trimethyl-12-oxo-6-(trifluoromethyl)-8,11,12,13-tetrahydro-imidazo[4″,5″:5′,6′]benzo-[1′,2′:5,6][1,4]diazocino-[7,8,1-hi]indole-2-carbon-yl)phenyl)-4-(((1r,4r)-4-methoxycyclohexyl)-amino)but-2-enamide]
[1]; [6]
  pIC50: 7.65
MIA PaCa-2 cells; [5]
  pIC50: 8.15

## Cc1nc2c3c(c(C(F)(F)F)cc2n1C)-c1cccc2c(C(=O)c4cc(F)c(NC(=O)/C=C/CNC5(C)COC5)c(F)c4)cn(c12)CC(=O)N3C [Example 77]
[1]; [6]
  pIC50: 7.09
MIA PaCa-2 cells; [5]
  pIC50: 7.27

## COc1cc2c(nc(C)n2C)c2c1-c1cccn3c(C(=O)c4cc(F)c(NC(=O)/C=C/CN[C@H]5CC[C@H](OC)CC5)c(F)c4)cc(c13)CCN2C [Example 78, (E)-N-(2,6-difluoro-4-(7-methoxy-9,10,12-tri-methyl-9,12,13,14-tetra-hydroimidazo[4″,5″:5′,6′]-benzo[1′,2′:2,3]azocino-[4,5,6-hi]indolizine-2-carbonyl)phenyl)-4-(((1r,4r)-4-methoxycyclo-hexyl)amino)but-2-en-amide]
[1]; [4]
  pIC50: 7.47
MIA PaCa-2 cells; [5]
  pIC50: 8.16
